Test [1] has as its system Influenza A (H1N1) 2009. To be noted: in vivo.
Test [2] concerns Influenza A (H1N1) 2009. To be noted: in vivo. This is another data set of the same source.

Where “and” joins values, the source holds several entries; their conditions need not be identical. Equal entries are not always repeated.

Turning to `CCOC(=O)C1=C[C@@H](OC(CC)CC)[C@H](NC(C)=O)[C@@H](N)C1` [Oseltamivir, oseltamivir], in the test with Influenza A (H1N1) 2009 [1], the “fever settled, day of illness” value stood at 5 and the “outcome of close contacts given oseltamivir prophylaxis” value was “remained well”. Besides, in the test with Influenza A (H1N1) 2009 [2], the RT-PCR entry is reported as “positive”; the ct value was 24 and 32 and 35.

For the origin of these results see patent US20120308993A1 (priority 2009, published 2012).
